Experimental data taken from article PMC7614683, “A small molecule PI3Kα activator for cardioprotection and neuroregeneration” (Nature, 2023).

Columns and labels:
PI3Kα-WT MEFs = assay: pAKT S473 western blot, PI3Kα-WT MEFs; format: cell-based; conditions: Mus musculus, 0.25 h; 15 min; read-out: EC50 of pAKT^S473 induction
Experimental: Unless otherwise indicated, western blotting was performed with ECL detection. For time course studies, A549 cells were seeded at 250,000 cells per well in 6-well plates in RPMI (10% FBS + 1 mM Na-Pyruvate + 1% P/S) and allowed to adhere overnight. The next day they were serum-starved for 4 h prior to treatment with 100 nM insulin or 5 μM 1938, for the indicated time (5 min to 48 h) at 37°C, 5% CO2. For 1938 titration assays in MEFs, cells were seeded at 150,000 cells per well in 6-well plates and allowed to adhere overnight. The next day they were serum-starved for 4 h prior to treatment with insulin (1 μM), 1938 (0.2 to 30 μM, final DMSO concentration of 1.5%) or inhibitors (final DMSO concentration of ≤1.5%) for 15 min at 37°C, 5% CO2. Cells were washed twice with cold PBS and lysed using cold RIPA buffer (25 mM Tris.HCl pH 7.6, 150 mM NaCl, 1% NP-40, 1% sodium deoxycholate, 0.1% SDS supplemented with protease/phosphatase inhibitor cocktail from Merck). To remove cell debris, homogenates were spun at 13,000 rpm for 15 min at 4°C and the supernatant fraction recovered. Protein concentration was determined by colorimetric assay (BCA assay, Promega). […]

human p110β/p85α (PI3Kβ) = biological target: T1, human p110β/p85α (PI3Kβ) (Homo sapiens, UniProt P42338); assay: ADP-Glo in vitro lipid kinase assay, PI3Kβ; format: biochemical
T1 construct: Full-length human p110β/p85α and p110δ/p85α were cloned and expressed in a similar manner; Strep-tag followed by TEV protease site (N, cleaved yes); host or cells: Spodoptera frugiperda Sf9, baculovirus
Experimental: Full-length human p110β/p85α and p110δ/p85α were cloned and expressed in a similar manner. Briefly, 5 litres of Spodoptera frugiperda (Sf9) cell culture at a density of 1.0 x 10^6 cells/ml were co-infected with both a p85α-encoding virus and a virus encoding p110β/δ with an N-terminal Strep-tag followed by a tobacco etch virus (TEV) protease site (plasmid OP832 for p110β, plasmid OP833 for p110δ and plasmid of OP809 for p85α). After a 48 h infection at 27°C, cells were harvested and washed with PBS. Cell pellets were then resuspended in Lysis Buffer (20 mM Tris pH 8.0, 150 mM NaCl, 5% glycerol, 2 mM β-mercaptoethanol, 1 EDTA-free protease inhibitor tablet (Roche) per 50 ml of buffer) and sonicated ar 4°C for 7 min in 15 sec intervals followed by a 15 sec wait. […]
For re-screening of HTS hits and routine compound profiling, the reaction mixture contained 2 μl PI3K enzyme, 2 μl compound and/or pY and 2 μl of liposome substrate mixed with ATP. […] Luminescence was read using a Sense (Hidex) plate reader. […]
For characterisation of the effects of 1938 on in vitro PI3K enzymology, all reactions were performed at room temperature with 384 white-polystyrene plates (Corning #3574). […] Data was expressed as velocity (nmol of ADP generated/nmol of enzyme/sec). […] Luminescence was read using a PHERAstar® plate reader with software version 5.41, and analyses were performed using GraphPad Prism 8/9.

T1 sequence (P42338 whole entry): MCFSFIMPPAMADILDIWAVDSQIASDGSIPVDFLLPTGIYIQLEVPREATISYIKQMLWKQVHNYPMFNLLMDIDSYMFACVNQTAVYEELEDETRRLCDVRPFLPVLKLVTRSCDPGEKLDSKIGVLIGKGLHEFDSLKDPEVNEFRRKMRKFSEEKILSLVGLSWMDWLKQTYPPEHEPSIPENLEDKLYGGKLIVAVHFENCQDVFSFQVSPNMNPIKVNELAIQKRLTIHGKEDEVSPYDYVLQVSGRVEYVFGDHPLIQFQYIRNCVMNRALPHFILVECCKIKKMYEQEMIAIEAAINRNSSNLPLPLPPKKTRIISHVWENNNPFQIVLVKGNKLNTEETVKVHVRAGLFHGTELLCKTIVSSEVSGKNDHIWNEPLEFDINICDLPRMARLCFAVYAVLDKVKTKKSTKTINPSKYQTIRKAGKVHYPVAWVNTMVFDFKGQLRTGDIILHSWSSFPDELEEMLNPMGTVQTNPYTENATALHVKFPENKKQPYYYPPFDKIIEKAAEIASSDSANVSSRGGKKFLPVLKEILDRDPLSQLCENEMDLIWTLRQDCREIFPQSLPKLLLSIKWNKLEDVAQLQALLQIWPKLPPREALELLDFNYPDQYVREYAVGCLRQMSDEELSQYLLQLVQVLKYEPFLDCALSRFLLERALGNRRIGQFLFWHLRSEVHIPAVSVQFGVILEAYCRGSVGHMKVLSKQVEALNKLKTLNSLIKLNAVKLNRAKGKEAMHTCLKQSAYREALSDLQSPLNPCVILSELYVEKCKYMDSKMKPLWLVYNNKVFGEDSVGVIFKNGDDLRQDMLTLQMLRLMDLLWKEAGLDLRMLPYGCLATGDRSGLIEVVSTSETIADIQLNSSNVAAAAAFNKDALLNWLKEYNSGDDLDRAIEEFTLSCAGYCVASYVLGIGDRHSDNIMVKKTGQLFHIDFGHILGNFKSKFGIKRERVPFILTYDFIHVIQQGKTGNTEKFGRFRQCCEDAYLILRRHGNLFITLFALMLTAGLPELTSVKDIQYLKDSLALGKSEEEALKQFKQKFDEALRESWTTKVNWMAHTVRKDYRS
T1 sequence (P27986 whole entry partner): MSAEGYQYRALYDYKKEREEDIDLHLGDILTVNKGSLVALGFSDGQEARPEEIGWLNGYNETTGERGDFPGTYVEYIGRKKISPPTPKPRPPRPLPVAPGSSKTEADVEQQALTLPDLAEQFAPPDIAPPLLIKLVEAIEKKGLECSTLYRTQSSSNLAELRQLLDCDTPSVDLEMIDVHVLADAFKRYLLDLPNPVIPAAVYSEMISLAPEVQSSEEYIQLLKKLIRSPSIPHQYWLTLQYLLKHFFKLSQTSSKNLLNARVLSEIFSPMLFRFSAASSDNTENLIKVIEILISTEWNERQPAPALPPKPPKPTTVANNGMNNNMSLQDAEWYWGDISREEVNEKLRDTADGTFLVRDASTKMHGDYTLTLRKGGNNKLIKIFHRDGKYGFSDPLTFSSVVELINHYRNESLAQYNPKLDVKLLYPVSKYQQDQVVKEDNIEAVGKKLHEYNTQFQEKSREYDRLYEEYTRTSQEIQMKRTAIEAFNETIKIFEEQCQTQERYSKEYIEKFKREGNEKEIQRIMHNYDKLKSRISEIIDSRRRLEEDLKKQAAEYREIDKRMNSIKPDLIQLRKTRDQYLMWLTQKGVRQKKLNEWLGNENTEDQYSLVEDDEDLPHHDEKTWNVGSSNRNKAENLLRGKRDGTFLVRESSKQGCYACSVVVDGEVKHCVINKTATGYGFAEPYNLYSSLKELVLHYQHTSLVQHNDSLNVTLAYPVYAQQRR

SMILES: CCN1CCN(c2ccc(Nc3cc(Nc4cccc5c4N(C(C)=O)CC5)ccn3)cc2)CC1 [Compound 1938]
- EC50 (PI3Kα-WT MEFs): 2 to 4 µM
- activation of PI3Kβ (human p110β/p85α (PI3Kβ)): but not PI3Kβ or PI3Kδ
